# pIC50: −log10 of the molar value.
# Key:
# EP4 = EP4 (Homo sapiens (Human), UniProt P35408); assay: hEP4 cAMP assay (BT549 breast cancer cells, HTRF cAMP); type: cell-based; settings: antagonistic activity; mean values where measured multiple times
# Protocol: Plate is pre-incubated 45 minutes at room temperature. Subsequently, 2.5 microliters of PGE2 (final conc. 6 nM) are transferred into the assay plate. Plate is incubated 30 minutes at room temperature.
# EP2 = EP2 (Homo sapiens (Human), UniProt P43116);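 note: antagonism of PGE2-stimulated cAMP accumulation in SF295 human glioblastoma cells with endogenous EP2, cAMP read by HTRF, expressed relative to DMSO control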
# Chain of EP2 (P43116 whole entry): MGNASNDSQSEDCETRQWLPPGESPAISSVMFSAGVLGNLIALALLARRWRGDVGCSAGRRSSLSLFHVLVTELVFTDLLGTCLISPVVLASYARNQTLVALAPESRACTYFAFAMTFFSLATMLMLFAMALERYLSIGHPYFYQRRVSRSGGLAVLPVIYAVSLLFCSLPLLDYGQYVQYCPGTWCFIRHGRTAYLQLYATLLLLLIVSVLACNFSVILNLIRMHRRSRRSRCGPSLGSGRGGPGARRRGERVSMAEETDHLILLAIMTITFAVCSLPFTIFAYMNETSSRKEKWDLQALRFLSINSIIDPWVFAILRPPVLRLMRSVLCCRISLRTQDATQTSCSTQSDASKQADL
# Text: Human tumor cell lines expressing endogenously either EP4 or EP2 are used and cAMP accumulation in cells upon PGE2 stimulation is monitored. SF295 glioblastoma cells express high endogenous EP2 and no EP4, whereas BT549 breast cancer cells, express high endogenous EP4 levels and very low EP2 levels.
# As a detection method for cAMP the HTRF (homogeneous time resolved fluorescence) Cisbio kit (HTRF cAMP dynamic 2 kit 20′000 tests Cisbio Cat. #62AM4PEC) was used, which is based on a competitive immunoassay using a Cryptate-labeled anti-cAMP antibody and d2-labeled cAMP. Native cAMP produced by cells or unlabeled cAMP (for the standard curve) compete with exogenously added d2-labeled cAMP (acceptor) for binding to monoclonal anti-cAMP-Eu3+Cryptate (donor). A FRET signal (Fluorescence Resonance Energy Transfer) is obtained only if the labeled anti-cAMP antibody binds the d2 labelled cAMP, thus the specific signal (i.e. energy transfer) is inversely proportional to the concentration of cAMP in the standard or sample.
# The SF295 cells (NCI/No. 0503170) are detached from culture dishes with a cell dissociation buffer (Invitrogen, 13151-014), and collected in growing medium (GM: RPM11640 (Invitrogen 21875)/10% FCS, 1% Penicilin/streptomycin). Cells are counted washed and resuspended in assay buffer (AB; HBSS, 20 mM HEPES, 0.2% BSA; 2 mM IBMX). 4,000 cells in 5 μl of AB are seeded per well of a small volume 384 well plate (black with flat bottom, Greiner 784076).
# PGE2 (Cayman 14010, stock solution: 75 μM in DMSO) is used as agonist at 75 nM final concentration, corresponding to EC80.
# Two point five microliters of diluted compounds are transferred into the assay plate. Plate is pre-incubated 45 minutes at room temperature. Subsequently, 2.5 microliters of PGE2 (final conc. 75 nM) are transferred into the assay plate. Plate is incubated 30 minutes at room temperature. Five μl of each donor (anti-cAMP cryptate) and acceptor (cAMP-d2) are added and the plate is incubated another hour at room temperature in the dark and then read using a BMG LABTECH PHERAstar reader (Excitation: 337 nm, Emission: 620 and 665 nm).
# The obtained Delta F (fluorescence) values (665 nm/620 nM) are converted into % cAMP values using the measurements of the cAMP calibrator provided in the kit. For each compound concentration the percentage of cAMP compared to DMSO control value as average±STDEV (each concentration is measured in duplicate) is calculated.
# IC50 values and curves are generated with XLfit software (IDBS) using Dose-Response One Site model 203. When compounds were measured multiple times, mean values are given.
# Chain of EP4 (P35408 whole entry): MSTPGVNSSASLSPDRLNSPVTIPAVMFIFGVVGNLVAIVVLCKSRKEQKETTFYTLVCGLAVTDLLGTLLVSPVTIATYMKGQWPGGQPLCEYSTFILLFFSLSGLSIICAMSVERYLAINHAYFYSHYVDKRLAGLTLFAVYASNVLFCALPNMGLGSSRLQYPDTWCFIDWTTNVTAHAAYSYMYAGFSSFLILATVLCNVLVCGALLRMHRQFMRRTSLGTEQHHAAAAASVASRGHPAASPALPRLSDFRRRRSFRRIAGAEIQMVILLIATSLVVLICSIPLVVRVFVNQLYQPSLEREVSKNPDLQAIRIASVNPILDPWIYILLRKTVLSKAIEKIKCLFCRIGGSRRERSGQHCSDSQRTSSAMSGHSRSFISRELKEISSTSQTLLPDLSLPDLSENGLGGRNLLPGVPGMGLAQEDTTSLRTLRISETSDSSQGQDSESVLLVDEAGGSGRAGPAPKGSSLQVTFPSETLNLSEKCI
pIC50 (EP4),pIC50 (EP2),SMILES
6.53,7.48,"CNS(=O)(=O)c1ccc(-c2cc(NCCn3c(C)cc4c(OC)ccc(F)c43)ncn2)cc1C(F)(F)F [compound 591, 4-{6-[2-(7-Fluoro-4-methoxy-2-methyl-indol-1-yl)-ethylamino]-pyrimidin-4-yl}-N-methyl-2-trifluoromethyl-benzenesulfonamide]"
7.41,7.89,CNc1nnc(-c2ccc(-c3cc(NCCn4c(C)cc5c(C)cc(F)cc54)ncn3)cc2)s1 [compound 592]
6.36,6.80,COc1ccc(F)c2c1cc(C)n2CCNc1cc(-c2ccc(-c3n[nH]cc3C(=O)O)cc2)ncn1 [compound 593]
7.38,6.72,COc1ccc(F)c2c1cc(C)n2CCNc1cc(-c2ccc(-c3cc(C(=O)O)[nH]n3)cc2)ncn1 [compound 594]
7.14,8.00,"COc1ccc(F)c2c1cc(C)n2CCNc1cc(-c2ccc(C(=O)O)c(OC3CCCC3)c2)ncn1 [compound 595, 2-Cyclopentyloxy-4-{6-[2-(7-fluoro-4-methoxy-2-methyl-indol-1-yl)-ethylamino]-pyrimidin-4-yl}-benzoic acid]"
6.14,6.76,CCOc1cc(-c2cc(NCCn3c(C)cc4c(OC)ccc(F)c43)ncn2)ccc1CNC1CCC1 [compound 597]
6.47,8.70,COc1cccc2c1cc(C)n2CCNc1cc(-c2ccc(C(=O)O)c(OC(F)F)c2)ncn1 [compound 598]
6.71,7.89,CCOc1cc(-c2cc(NCCn3c(C)cc4c(OC)cccc43)ncn2)cc(Cl)c1C(=O)O [compound 599]
6.50,7.85,Cc1cc(F)cc2c1cc(C)n2CCNc1cc(-c2ccc(C(=O)O)c(OC(F)F)c2)ncn1 [compound 600]
6.91,7.92,Cc1ccc(F)c2c1cc(C)n2CCNc1cc(-c2ccc(C(=O)O)c(OC(F)F)c2)ncn1 [compound 601]
6.09,6.79,CCS(=O)(=O)Nc1cc(-c2cc(NCCn3c(C)cc4c(C)ccc(F)c43)ncn2)ccc1C(=O)O [compound 602]
7.82,7.39,COc1cc(F)cc2c1cc(C#N)n2CCNc1cc(-c2ccc(C(=O)O)c(CC(C)C)c2)ncn1 [compound 603]
6.49,7.80,COc1cc(F)cc2c1cc(C)n2CCNc1cc(-c2ccc(C(=O)O)c(OC(F)(F)F)c2)ncn1 [compound 604]
6.08,7.32,COc1ccc(Cl)c2c1cc(C)n2CCNc1cc(-c2ccc(C(=O)O)c(OC(F)(F)F)c2)ncn1 [compound 605]
6.73,8.10,COc1ccc(F)c2c1cc(C)n2CCNc1cc(-c2ccc(C(=O)O)c(OC(F)(F)F)c2)ncn1 [compound 606]
6.95,7.60,CCCOc1cc(-c2cc(NCCn3c(C)cc4c(OC)cc(F)cc43)ncn2)cc(Cl)c1C(=O)O [compound 607]
6.90,7.62,CCCOc1cc(-c2cc(NCCn3c(C)cc4c(OC)cc(F)cc43)ncn2)cc(F)c1C(=O)O [compound 608]
7.38,8.00,CCCOc1cc(-c2cc(NCCn3c(C)cc4c(OC)ccc(F)c43)ncn2)cc(Cl)c1C(=O)O [compound 609]
6.86,7.66,CCCOc1cc(-c2cc(NCCn3c(C)cc4c(OC)ccc(F)c43)ncn2)cc(F)c1C(=O)O [compound 610]

pIC50 (EP4),pIC50 (EP2),SMILES
7.25,8.40,CCCCOc1cc(-c2cc(NCCn3c(C)cc4c(OC)cc(F)cc43)ncn2)ccc1C(=O)O [compound 611]
7.10,8.10,COc1cc(F)cc2c1cc(C)n2CCNc1cc(-c2ccc(C(=O)O)c(OCC(C)C)c2)ncn1 [compound 612]
6.66,8.40,CCCCOc1cc(-c2cc(NCCn3c(C)cc4c(OC)ccc(Cl)c43)ncn2)ccc1C(=O)O [compound 613]
6.71,7.92,COc1ccc(Cl)c2c1cc(C)n2CCNc1cc(-c2ccc(C(=O)O)c(OCC(C)C)c2)ncn1 [compound 614]
7.41,8.70,CCCCOc1cc(-c2cc(NCCn3c(C)cc4c(OC)ccc(F)c43)ncn2)ccc1C(=O)O [compound 615]
7.07,8.30,COc1ccc(F)c2c1cc(C)n2CCNc1cc(-c2ccc(C(=O)O)c(OCC(C)C)c2)ncn1 [compound 616]
6.02,7.22,CCOc1cc(-c2cc(NCCn3c(C)cc4c(OC)ccc(Cl)c43)ncn2)cc(CC)c1C(=O)O [compound 617]
6.40,7.62,CCOc1cc(-c2cc(NCCn3c(C)cc4c(OC)ccc(F)c43)ncn2)cc(CC)c1C(=O)O [compound 618]
6.60,8.05,CCCc1cc(-c2cc(NCCn3c(C)cc4c(OC)ccc(F)c43)ncn2)cc(OC)c1C(=O)O [compound 619]
6.25,8.22,CCCOc1cc(-c2cc(NCCn3c(C)cc4c(F)cc(F)c(F)c43)ncn2)cc(Cl)c1C(=O)O [compound 620]
7.24,7.47,COc1cc(F)c(F)c2c1cc(C)n2CCNc1cc(-c2ccc(C(=O)O)c(CC(C)C)c2)ncn1 [compound 621]
6.52,6.14,COc1c(Cl)cc(F)c2c1cc(C)n2CCNc1cc(-c2ccc(C(=O)O)c(CC(C)C)c2)ncn1 [compound 622]
6.89,7.35,COc1cc(F)cc2c1cc(C)n2CCNc1cc(-c2ccc(C(=O)O)c(CC(C)C)c2)nc(C)n1 [compound 623]
6.30,7.32,CCCc1cc(-c2cc(NCCn3c(C)cc4c(C)ccc(F)c43)ncn2)cc(OCC)c1C(=O)O [compound 624]
7.15,7.80,COc1ccc(F)c2c1cc(C)n2CCNc1cc(-c2ccc(C(=O)O)c(CC(C)C)c2)nc(C)n1 [compound 625]
6.45,7.29,CCOc1cc(-c2cc(NCCn3c(C)cc4c(C)cc(F)cc43)nc(C(F)(F)F)n2)sc1C(=O)O [compound 626]
6.71,7.32,CCCOc1cc(-c2cc(NCCn3c(C)cc4c(C)cc(F)c(F)c43)ncn2)cc(F)c1C(=O)O [compound 627]
6.60,7.05,CCCOc1cc(-c2cc(NCCn3c(C)cc4c(C)cc(F)c(F)c43)ncn2)cc(Cl)c1C(=O)O [compound 628]
7.01,7.59,CCCOc1cc(-c2cc(NCCn3c(C)cc4c(C)c(F)cc(F)c43)ncn2)cc(Cl)c1C(=O)O [compound 629]

pIC50 (EP4),pIC50 (EP2),SMILES
6.85,8.22,COc1cc(F)cc2c1cc(C)n2CCNc1cc(-c2ccc(C(=O)O)c(OC(F)F)c2)ncn1 [compound 630]
6.49,7.85,COc1ccc(Cl)c2c1cc(C)n2CCNc1cc(-c2ccc(C(=O)O)c(OC(F)F)c2)ncn1 [compound 631]
6.12,7.22,CCCc1cc(-c2cc(NCCn3c(C)cc4c(OC)ccc(Cl)c43)ncn2)cc(OCC)c1C(=O)O [compound 633]
6.71,7.57,CCCc1cc(-c2cc(NCCn3c(C)cc4c(OC)ccc(F)c43)ncn2)cc(OCC)c1C(=O)O [compound 634]
6.73,7.30,CCOc1cc(-c2cc(NCCn3c(C)cc4c(OC)cc(F)cc43)nc(C(F)(F)F)n2)sc1C(=O)O [compound 635]
6.59,7.17,COc1cc(F)c(F)c2c1cc(C)n2CCNc1cc(-c2ccc(C(=O)O)c(OC(F)(F)F)c2)ncn1 [compound 636]
7.27,7.60,CCCOc1cc(-c2cc(NCCn3c(C)cc4c(OC)cc(F)c(F)c43)ncn2)cc(F)c1C(=O)O [compound 637]
7.48,7.21,CCCOc1cc(-c2cc(NCCn3c(C)cc4c(OC)cc(F)c(F)c43)ncn2)cc(Cl)c1C(=O)O [compound 638]
7.43,7.64,COc1cc(F)c(F)c2c1cc(C)n2CCNc1cc(-c2ccc(-c3cnc(N)o3)cc2)ncn1 [compound 639]
6.37,6.32,COc1cc(F)cc2c1cc(C)n2CCNc1cc(-c2ccc3[nH]c(C(F)(F)F)nc3c2)ncn1 [compound 640]
6.82,6.94,COc1cc(F)c(F)c2c1cc(C)n2CCNc1cc(-c2ccc(-c3cncn3C)cc2)ncn1 [compound 641]
6.15,6.53,Cc1ccc(F)c2c1cc(C)n2CCNc1cc(-c2ccc(-c3cnc(CCC(=O)O)o3)cc2)ncn1 [compound 643]
7.27,8.22,"COc1cc(F)c(F)c2c1cc(C)n2CCNc1cc(-c2ccc(C(=O)O)c(NCC(F)(F)F)c2)ncn1 [compound 644, 4-{6-[2-(6,7-Difluoro-4-methoxy-2-methyl-indol-1-yl)-ethylamino]-pyrimidin-4-yl}-2-(2,2,2-trifluoro-ethylamino)-benzoic acid]"
7.80,8.05,CNc1nnc(-c2ccc(-c3cc(NCCn4c(C)cc5c(OC)cc(F)cc54)ncn3)cc2)s1 [compound 645]
6.51,7.32,COc1ccc(F)c2c1cc(C)n2CCNc1cc(-c2ccc(-c3cnc(CCC(=O)O)o3)cc2)ncn1 [compound 646]
6.52,6.84,Cc1nc(CCC(=O)O)oc1-c1ccc(-c2cc(NCCn3c(C)cc4c(C)cc(F)cc43)ncn2)cc1 [compound 647]
6.05,6.71,Cc1nc(CCC(=O)O)oc1-c1ccc(-c2cc(NCCn3c(C)cc4c(C)ccc(F)c43)ncn2)cc1 [compound 648]
6.11,7.89,COc1cccc2c1cc(C)n2CCNc1cc(-c2ccc(C(=O)O)c(Oc3ccc(F)cc3)c2)ncn1 [compound 649]
6.35,7.03,Cc1ccc(F)c2c1cc(C)n2CCNc1cc(-c2ccc(C(=O)O)c(Oc3ccc(F)cc3)c2)ncn1 [compound 650]

SMILES,pIC50 (EP4),pIC50 (EP2)
COc1ccc(F)c2c1cc(C)n2CCNc1cc(-c2ccc(-c3onc(C)c3C(=O)O)cc2)ncn1 [compound 596],6.65,8.00

# From US12011444B2, “N-substituted indole derivatives as PGE2 receptor modulators” (Idorsia Pharmaceuticals Ltd, priority 2015, dated 2024)
